Assay results: BindingDB's records for doi:10.1016/j.bmcl.2014.01.058 (Novartis Institutes For Biomedical Research, 2014)

Columns and labels:
[1] = Inhibition of recombinant full length RSK2 (unknown origin) using biotin-AGAGRSRHSSYPAGT-OH as substrate after 150 mins
[2] = Inhibition of RSK2 in mouse BAF cells assessed as YB1 phosphorylation at Ser102 by electrochemiluminescence assay

Compound	IC50 [1]	IC50 [2]
CCOc1cccc(F)c1-c1cccc2nc(Nc3cc(OC)c(OC)c(OC)c3)oc12	0.49 µM	10.8 µM
COc1cc(Nc2nc3cccc(-c4nc(C)[nH]c4C)c3o2)cc(OC)c1OC	0.56 µM	19.8 µM
COc1cccc(F)c1-c1cccc2nc(NC3CCCCC3)oc12	0.62 µM	> 20 µM
COc1cccc(Nc2nc3cccc(-c4c(F)cccc4OC)c3o2)n1	0.62 µM	> 20 µM
CCOc1cccc(Nc2nc3cccc(-c4c(F)cccc4OC)c3o2)c1	0.73 µM	> 20 µM
COc1cc(Nc2nc3cccc(-c4c(F)cccc4OC(C)C)c3o2)cc(OC)c1OC	0.97 µM	> 20 µM
COc1cccc(F)c1-c1cccc2nc(Nc3ccccc3)oc12	1 µM	> 20 µM
COc1ccc(C)cc1-c1cccc2nc(Nc3cc(OC)c(OC)c(OC)c3)oc12	1.1 µM	14.5 µM
COc1cc(Nc2nc3cccc(-c4c(OC)cccc4OC)c3o2)cc(OC)c1OC	1.2 µM	> 20 µM
COc1ccc(Nc2nc3cccc(-c4c(F)cccc4OC)c3o2)cc1	1.4 µM	> 20 µM
COc1cccc(F)c1-c1cccc2nc(N)oc12	2.8 µM	> 20 µM
COc1cccc(F)c1-c1cccc2nc(NC3CCOCC3)oc12	3.2 µM	> 20 µM
COc1cc(Nc2nc3cccc(-c4ccccc4OC(F)(F)F)c3o2)cc(OC)c1OC	4 µM	> 20 µM
COc1cc(Nc2nc3cccc(-c4ccccc4-c4cn[nH]c4)c3o2)cc(OC)c1OC	9.3 µM	> 20 µM

Compounds with a lower IC50 [1], results first:

IC50 [1]	IC50 [2]	Compound
0.004 µM	0.8 µM	COc1cc(Nc2nc3cccc(-c4cccc5[nH]cnc45)c3o2)cc(OC)c1OC
0.01 µM	6.3 µM	COc1ccc(Nc2nc3cccc(-c4c(F)cccc4OC)c3o2)cc1O[C@H]1CCNC1
0.02 µM	5.7 µM	COc1ccccc1-c1cccc2nc(Nc3cc(OC)c(OC)c(OC)c3)oc12
0.04 µM	3.7 µM	COc1ccc(F)cc1-c1cccc2nc(Nc3cc(OC)c(OC)c(OC)c3)oc12
0.04 µM	9.7 µM	COc1cc(C)ccc1-c1cccc2nc(Nc3cc(OC)c(OC)c(OC)c3)oc12
0.05 µM	5.7 µM	COc1cc(Nc2nc3cccc(-c4cccc5cn[nH]c45)c3o2)cc(OC)c1OC
0.07 µM	6.5 µM	COc1ccc(Nc2nc3cccc(-c4c(F)cccc4OC)c3o2)cc1OC
0.21 µM	17.2 µM	COc1cc(Nc2nc3cccc(-c4c(F)cccc4OC)c3o2)cc(OC)c1
0.22 µM	> 20 µM	COc1ccc(Nc2nc3cccc(-c4c(F)cccc4OC)c3o2)cc1N
0.22 µM	18 µM	COc1cc(Nc2nc3cccc(-c4ccccc4F)c3o2)cc(OC)c1OC
0.34 µM	> 20 µM	COc1cccc(F)c1-c1cccc2nc(Nc3cccc(S(N)(=O)=O)c3)oc12
0.41 µM	15.4 µM	COc1cccc(Nc2nc3cccc(-c4c(F)cccc4OC)c3o2)c1
